# Test results taken from ChEMBL document CHEMBL4665869, “New thiazolopyrimidine as anticancer agents: Synthesis, biological evaluation, DNA binding, molecular modeling and ADMET study” (Bioorg Med Chem Lett, 2020).
# The source made the active and inactive calls. No cut-off for these calls is given here.
# Assays:
# Type in all cases: functional
# MDA-MB-435 = assay: Growth inhibition of human MDA-MB-435 cells at 10 uM relative to control
# [1] = Growth inhibition of human colon cancer cells; conditions: Colon cancer cell line
# KM12 = assay: Growth inhibition of human KM12 cells at 10 uM relative to control
# OVCAR-5 = assay: Growth inhibition of human OVCAR-5 cells at 10 uM relative to control
# MOLT-4 = assay: Growth inhibition of human MOLT-4 cells at 10 uM relative to control
# NCI-H522 = assay: Growth inhibition of human NCI-H522 cells at 10 uM relative to control
# SN12C = assay: Growth inhibition of human SN12C cells at 10 uM relative to control
# T47D = assay: Growth inhibition of human T47D cells at 10 uM relative to control; conditions: read-out: GI
# DU-145 = assay: Growth inhibition of human DU-145 cells at 10 uM relative to control
# CAKI-1 = assay: Growth inhibition of human CAKI-1 cells at 10 uM relative to control
# [2] = Growth inhibition of human prostate cancer cells; conditions: Prostate tumor cell line
# K562 = assay: Growth inhibition of human K562 cells at 10 uM relative to control; conditions: read-out: GI
# Leukemia cell = assay: Growth inhibition of human leukemia cancer cells
# COLO 205 = assay: Growth inhibition of human COLO 205 cells at 10 uM relative to control
# [3] = read-out: LC50 (the source's name)
smiles,measurement,setting,value
COc1cc(/C=C/C2=CC(c3cc(OC)c(OC)c(OC)c3)N3C=C(C)SC3=N2)cc(OC)c1OC (stereo not given),growth inhibition (GI),MDA-MB-435,Active
same,GI50,[1],0.92 µM
same,TGI,[1],3.62 µM
same,CC50,[1]; [3],36 µM
same,growth inhibition (GI),KM12,Active
same,growth inhibition (GI),OVCAR-5,Active
same,growth inhibition (GI),MOLT-4,Active
same,growth inhibition (GI),NCI-H522,Active
same,growth inhibition (GI),SN12C,Active
same,inhibition of growth at 10 µM,T47D,92%
same,growth inhibition (GI),DU-145,Active
same,growth inhibition (GI),CAKI-1,Active
same,GI50,[2],1.69 µM
same,TGI,[2],52.9 µM
same,CC50,[2]; [3],> 100 µM
same,inhibition of growth at 10 µM,K562,97.8%
same,GI50,Leukemia cell,0.43 µM
same,TGI,Leukemia cell,61.9 µM
same,CC50,Leukemia cell; [3],> 100 µM
same,growth inhibition (GI),COLO 205,Active
